Laboratory results: the NIST ThermoML archive (doi:10.1021/je060124c)
± gives the expanded uncertainty stated by the source.

Conditions: Liquid, Capillary tube (Ostwald / Ubbelohde) method

**Q.** For O [water], which viscosity (296.56 K, 10000 kPa) is on record?
**A.** Its viscosity is 0.9188 ± 0.027 mPa·s.

**Q.** What about the viscosity (296.56 K, 30000 kPa) of the same compound?
**A.** The viscosity was 0.9185 ± 0.027 mPa·s.

**Q.** What about the viscosity (337.85 K, 10000 kPa) of the same compound?
**A.** The viscosity was 0.4362 ± 0.013 mPa·s.

**Q.** And the viscosity (337.85 K, 30000 kPa)?
**A.** The viscosity was 0.4437 ± 0.013 mPa·s.

**Q.** What about the viscosity (369.15 K, 10000 kPa) of the same compound?
**A.** The viscosity was 0.296 ± 0.0089 mPa·s.

**Q.** And the viscosity (369.15 K, 30000 kPa)?
**A.** Its viscosity is 0.3028 ± 0.0091 mPa·s.

**Q.** What about the viscosity (398.75 K, 10000 kPa) of the same compound?
**A.** The viscosity was 0.2229 ± 0.0067 mPa·s.

**Q.** And the viscosity (398.75 K, 30000 kPa)?
**A.** The viscosity was 0.2295 ± 0.0069 mPa·s.

**Q.** And the viscosity (436.34 K, 10000 kPa)?
**A.** The viscosity was 0.168 ± 0.0051 mPa·s.

**Q.** And the viscosity (436.34 K, 30000 kPa)?
**A.** The viscosity was 0.1743 ± 0.0053 mPa·s.

**Q.** What about the viscosity (482.43 K, 10000 kPa) of the same compound?
**A.** The viscosity was 0.1308 ± 0.004 mPa·s.

**Q.** What about the viscosity (482.43 K, 30000 kPa) of the same compound?
**A.** Its viscosity is 0.1341 ± 0.0041 mPa·s.

**Q.** What about the viscosity (521.56 K, 10000 kPa) of the same compound?
**A.** Its viscosity is 0.1089 ± 0.0034 mPa·s.

**Q.** And the viscosity (521.56 K, 30000 kPa)?
**A.** The viscosity was 0.1143 ± 0.0036 mPa·s.

**Q.** And the viscosity (580.74 K, 10000 kPa)?
**A.** Its viscosity is 0.0838 ± 0.0027 mPa·s.

**Q.** And the viscosity (580.74 K, 30000 kPa)?
**A.** Its viscosity is 0.0953 ± 0.003 mPa·s.
